Where two headings read alike, the source gives them in different places.
What was measured:
[1] = cited from earlier work
purified CYP 1A2 = target: T1, purified CYP 1A2 (Homo sapiens, UniProt P05177); experiment: purified RECO System CYP 1A2 enzyme activity with methoxyresorufin
T1 sequence (P05177 2-516 limits assumed): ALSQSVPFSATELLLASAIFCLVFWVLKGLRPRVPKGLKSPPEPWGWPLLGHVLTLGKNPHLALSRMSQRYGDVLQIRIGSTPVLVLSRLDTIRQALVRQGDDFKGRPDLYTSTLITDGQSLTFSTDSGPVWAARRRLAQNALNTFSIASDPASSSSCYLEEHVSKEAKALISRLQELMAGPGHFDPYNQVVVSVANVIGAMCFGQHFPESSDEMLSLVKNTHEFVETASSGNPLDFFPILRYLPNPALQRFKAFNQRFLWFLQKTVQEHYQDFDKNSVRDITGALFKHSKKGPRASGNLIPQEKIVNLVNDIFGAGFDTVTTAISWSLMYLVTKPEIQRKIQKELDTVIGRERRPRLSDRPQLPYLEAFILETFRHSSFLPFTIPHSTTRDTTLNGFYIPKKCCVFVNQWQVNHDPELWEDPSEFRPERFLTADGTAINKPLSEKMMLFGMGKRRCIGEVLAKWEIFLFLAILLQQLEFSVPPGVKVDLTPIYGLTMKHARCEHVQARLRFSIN
Protocol: A composition of enzyme mixture comprises 0.5 uM CYP1A2, 0.2 μM NADPH P450 reductase, 0.5 μg/uL CHAPS, 0.1 μg/uL liposomes (dilauroyl phosphotidylcholine, dileoyl phosphotidylcholine, dilauroyl phosphotidylcholine (1:1:1)), 3 mM reductive glutathion, and 50 mM HEPES/KOH (pH 7.4). A buffer solution is 1 M potassium/sodium phosphate. 768 μl of tertiary distilled water, 126.7 μl of CYP 1A2 buffer solution, and 5.3 μl of 1 mM methoxyresorufin were added sequentially to make […] of solution and heated at 37° C. 5 μl of enzyme activation inhibiting material was added into 85 μl of buffer solution and substrate mixture to make final concentration 0.1, 0.5, 1.0, and 2.0 mg/ml respectively. The reaction started at 37° C. while adding 5 μl of CYP 1A2 enzyme mixture and 5 μl of 50 mM NADPH. The reaction was maintained for 20 minutes and stopped by adding 1 ml of methanol. The enzyme activity was measured by using a RF-5301 PC spectrofluoro photometer (SHIMADZU, Japan).

[2] = inhibition of nitrosomorpholine generation from morpholine and NaNO2 in vitro; conditions: 20 mg/ml
Protocol: EGCG, quercetin, catechin, vitamin C and powdered green tea were used as a control group. Each specimen was used in a concentration of 2.5, 5, 10, 15, 20 mg/ml. 200 mM of sodium nitrate not containing morpholine was used as a negative control. The specimen not containing the nitrosating agent NaNO2 was used as a blank in each reaction.
Each specimen was added into 15 ml of corning tubes according to concentration and marked with the blank, test, negative control. 1 ml of glacial acetic acid was added into each tube and 100 μl of 2 M NaNO2 was added into each tube except blank and distilled water was added to make total volume of 2 ml. After reacting for 10 minutes at 37° C., 176 μl of morpholine was added to make 2 M and the reaction was further carried out for 30 minutes at 37° C. The reaction was stopped by adding 3.8 ml of 5 N NaOH to set pH 10 to 12. According to DBA method, the specimens were measured and compared with blank group (not added NaNO2) and negative control group (not added morpholine and added 200 mM NaNO2).
Generation rate of nitrosomorpholine (NMOR %) is measured as below calculating formula 1. NMOR %=[(t0−blank)−(t30−blank)]/(t0−blank) (Calculating formula 1) • Blank; a specimen not containing nitrosating agent NaNO2 • t0; a specimen containing 200 mM of NaNO2 without morpholine • t30; a specimen normally reacted in the generation of nitrosomorpholine.

CYP 1A2 [3] = target: T2, CYP 1A2 (Rattus norvegicus, UniProt P04799); experiment: MROD (methoxyresorufin dealkylase) activity in Aroclor 1254-induced rat liver supernatant
T2 sequence (P04799 1-513): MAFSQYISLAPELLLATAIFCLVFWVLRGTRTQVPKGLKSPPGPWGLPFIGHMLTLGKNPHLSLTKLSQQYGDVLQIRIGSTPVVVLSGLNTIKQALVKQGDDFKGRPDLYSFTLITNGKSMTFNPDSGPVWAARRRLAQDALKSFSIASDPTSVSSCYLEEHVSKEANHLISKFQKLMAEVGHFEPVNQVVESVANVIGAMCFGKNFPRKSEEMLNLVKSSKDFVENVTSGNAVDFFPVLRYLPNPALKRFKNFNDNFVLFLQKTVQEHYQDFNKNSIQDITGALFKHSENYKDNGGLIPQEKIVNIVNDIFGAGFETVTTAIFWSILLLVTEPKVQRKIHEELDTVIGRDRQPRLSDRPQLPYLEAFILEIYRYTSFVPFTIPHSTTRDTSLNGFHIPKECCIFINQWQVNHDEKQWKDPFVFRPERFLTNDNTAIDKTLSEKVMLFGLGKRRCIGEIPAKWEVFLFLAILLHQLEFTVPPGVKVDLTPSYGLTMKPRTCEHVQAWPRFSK
Protocol: (§1) The present test measured the inhibition effect of CYP relating to NNK activation to various test materials after inducing CYP of a liver from a rat(Sprague-Dawley rat) by Aroclor 1254(Sigma, USA) and taking out the liver.
(§2) Aroclor 1254 was injected into the abdomen of a 7-week old male rat (Sprague-Dawley rat) in a capacity of 500 mg/kg. After 5 days, the liver was taken out in a sterile state and homogenized using 0.15M of KCl solution at 4° C. A supernatant was separated by a centrifugal separation for 10 minutes at 9000 g from the homogenate and used in the test. Activity of CYP was measured by using pentoxyresorufin(Sigma USA) which is a substrate of CYP 2B1/2/4, ethoxyresorufin(Sigma USA) which is a substrate of CYP 1A1 and methoxyresorufin(Sigma USA) which is a substrate of CYP 1A2. […] The inhibition effect for CYP activity was compared using the above reaction specimen (inhibition material), the supernatant taken out from the liver and specific substrate of each CYP. […] Each specimen has a concentration of 0.1, 0.5, 1.0 and 2.0 mg/ml and an amount of protein taken out from the liver is set to 500 μg/ml. Each substrate had 2.5 μM of stock solution and finally became 25 nM after adding 10 μl. […] The enzyme activity was measured by using a RF-5301 PC spectrofluoro photometer (SHIMADZU, Japan) from the supernatant (excitation at 522 nm and emission at 586 nm). […]

[4] = DPPH free radical scavenging
Protocol: 1.5 ml of DPPH was placed into a cuvette and 1.5 ml of antioxidant solution was added and evenly mixed. Right after mixing, the change of absorbance (523 nm) according to time was measured and the decomposition rate was calculated. Decomposition rate=(initial absorbance of DPPH−absorbance after adding each specimen according to time)/initial absorbance of DPPH×100 (Calculating formula 3)

CYP 1A2 [5] = target: T2, CYP 1A2
Protocol: as §1, §2

[6] = system: breast cancer, leukemia, uterus cancer, stomach cancer and colon cancer cell strain; conditions: cited from earlier work

## O=C(O)CCC(=O)c1cccnc1 [ketoic acid]
[1]; in vivo
  share of ketoic acid metabolized to hydroxy acid and excreted as urine: 85%

## catechin
Purified CYP 1A2; purified enzyme
  order of inhibition of activity of purified CYP 1A2: EGCG>>the functional agent>>quercetin>>powdered green tea>>catechin
[2]
  inhibition of generating nitromorpholine from morpholine: ~75%
CYP 1A2 [3]
  order of inhibition of activity of CYP 1A2: quercetin>>the functional agent>>catechin≈powdered green tea

## epigallocatechin-3-gallate [EGCG]
[4]
  DPPH radical scavenging effect, comparison: two times higher than that of the functional agent and catechin
Purified CYP 1A2; purified enzyme
  order of inhibition of activity of purified CYP 1A2: EGCG>>the functional agent>>quercetin>>powdered green tea>>catechin

## CN1C(=O)CC[C@H]1c1cccnc1 [cotinine]
[1]; cotinine
  half period: 24 h

## O=c1c(O)c(-c2ccc(O)c(O)c2)oc2cc(O)cc(O)c12 [quercetin]
Purified CYP 1A2
  order of inhibition of activity of purified CYP 1A2: EGCG>>the functional agent>>quercetin>>powdered green tea>>catechin
[2]
  inhibition of generating nitromorpholine from morpholine: ~75%
CYP 1A2 [5]
  order of inhibition of activity of CYP 1A2: quercetin>>the functional agent>>catechin≈powdered green tea
[6]
  concentration of quercetin at which propagation of cancer cell strain was inhibited: 10 µM

## CN1CCCC1c1cccnc1 (stereo not drawn) [nicotine]
[1]; in vivo
  share of nicotine conversed into cotinine: 70-80%
  share of nicotine conversed into nicotine-1-N-oxide by FMO: 4%
  share of nicotine excreted as urine through metabolism: 80-90%
[1]; nicotine
  half period: 0.5 h

Source: US7037533B2 (priority 2001, dated 2006)
